Columns and labels:
[1] = biological target: Tyrosine-protein kinase Lck (Homo sapiens, UniProt P06239); experiment: Inhibition of LCK
[2] = biological target: Tyrosine-protein kinase HCK (Homo sapiens, UniProt P08631); experiment: Inhibition of HCK
[3] = biological target: Proto-oncogene tyrosine-protein kinase Src (Homo sapiens, UniProt P12931); experiment: Inhibition of SRC
Mus musculus = experiment: (§1) AUC in mouse at 20 mg/kg, po; assay type: ADME, organism-based, Plasma; design: dose 20 mg/kg, route oral
BaF3 = experiment: Cytotoxicity against mouse BAF3 cells; assay type: functional, cell-based
[4] = Metabolic stability in mouse assessed as extraction ratio at 20 mg/kg, po; assay type: ADME, organism-based; design: dose 20 mg/kg, route oral; conditions: in vivo
[5] = as §1; assay type: ADME, organism-based, Plasma; design: dose 20 mg/kg, route oral; conditions: mouse, plasma, po, 20 mg/kg

Sequence of Proto-oncogene tyrosine-protein kinase Src (P12931 2-536 limits assumed): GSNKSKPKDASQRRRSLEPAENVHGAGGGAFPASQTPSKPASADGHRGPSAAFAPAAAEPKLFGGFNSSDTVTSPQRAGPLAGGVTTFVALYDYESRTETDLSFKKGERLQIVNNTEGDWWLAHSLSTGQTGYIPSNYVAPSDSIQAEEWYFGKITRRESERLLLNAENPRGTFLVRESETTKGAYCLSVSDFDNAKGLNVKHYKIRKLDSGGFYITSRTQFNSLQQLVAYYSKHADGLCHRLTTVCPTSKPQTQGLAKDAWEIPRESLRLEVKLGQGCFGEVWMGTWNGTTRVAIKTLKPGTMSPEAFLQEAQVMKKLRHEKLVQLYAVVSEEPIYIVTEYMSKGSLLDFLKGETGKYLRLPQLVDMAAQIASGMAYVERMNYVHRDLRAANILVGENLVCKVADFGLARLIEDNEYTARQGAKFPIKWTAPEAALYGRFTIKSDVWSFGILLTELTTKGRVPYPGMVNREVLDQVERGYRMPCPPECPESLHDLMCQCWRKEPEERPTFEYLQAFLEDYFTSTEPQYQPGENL
Sequence of Tyrosine-protein kinase HCK (P08631 whole entry): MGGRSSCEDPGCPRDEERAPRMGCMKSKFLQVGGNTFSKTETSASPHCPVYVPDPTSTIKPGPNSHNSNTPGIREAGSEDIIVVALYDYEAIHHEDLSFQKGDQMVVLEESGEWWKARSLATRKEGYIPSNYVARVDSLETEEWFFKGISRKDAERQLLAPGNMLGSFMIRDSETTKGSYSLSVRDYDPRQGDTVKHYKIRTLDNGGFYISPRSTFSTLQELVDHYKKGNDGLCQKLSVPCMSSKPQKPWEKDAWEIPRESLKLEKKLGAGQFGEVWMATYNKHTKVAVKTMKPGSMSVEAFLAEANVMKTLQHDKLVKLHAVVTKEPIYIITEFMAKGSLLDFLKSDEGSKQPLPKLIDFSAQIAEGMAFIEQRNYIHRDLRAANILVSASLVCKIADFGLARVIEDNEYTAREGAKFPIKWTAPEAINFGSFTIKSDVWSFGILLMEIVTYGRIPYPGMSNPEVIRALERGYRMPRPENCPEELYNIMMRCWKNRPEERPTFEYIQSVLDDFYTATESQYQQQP
Sequence of Tyrosine-protein kinase Lck (P06239 whole entry): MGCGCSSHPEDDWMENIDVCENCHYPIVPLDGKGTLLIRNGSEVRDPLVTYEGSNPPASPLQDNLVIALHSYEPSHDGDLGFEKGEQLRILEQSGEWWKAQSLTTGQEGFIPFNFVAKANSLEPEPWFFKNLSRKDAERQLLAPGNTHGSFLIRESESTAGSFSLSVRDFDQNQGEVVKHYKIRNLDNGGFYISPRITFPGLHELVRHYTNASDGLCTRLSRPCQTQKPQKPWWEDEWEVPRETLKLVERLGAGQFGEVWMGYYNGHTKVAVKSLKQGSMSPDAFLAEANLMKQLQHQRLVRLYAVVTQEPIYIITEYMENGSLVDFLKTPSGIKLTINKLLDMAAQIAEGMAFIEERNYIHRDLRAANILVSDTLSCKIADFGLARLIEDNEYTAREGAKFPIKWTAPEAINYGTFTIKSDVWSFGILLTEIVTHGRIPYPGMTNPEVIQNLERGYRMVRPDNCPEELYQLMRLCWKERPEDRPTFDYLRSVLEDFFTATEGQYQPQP

SMILES | IC50 [1] [nM] | IC50 [2] [nM] | IC50 [3] [nM] | hepatic extraction ratio [4] | AUC [5] [µM·h] | AUC (Mus musculus) [nmol·h/L] | IC50 (BaF3) [nM]
Cc1ccc(NC(=O)c2cc(C(C)(C)C)nn2C)cc1Nc1nc2ccccc2n1-c1cc(N)ncn1 | 316 | 844 | 7190 | – | – | – | –
Cc1ccc(C(=O)Nc2cccc3cnccc23)cc1Nc1nc2ccccc2n1-c1cc(N)ncn1 | 616 | > 2500 | – | – | – | – | –
Cc1ccc(NC(=O)c2cccc(C(F)(F)F)c2)cc1Nc1nc2ccccc2n1-c1cc(NCCCCN)ncn1 | 13 | 345 | – | – | – | – | –
Cc1cccc(NC(=O)c2ccc(C)c(Nc3nc4ccccc4n3-c3cc(NCCN4CCN(C)CC4)ncn3)c2)c1 | 38 | > 2500 | – | – | – | – | –
Cc1ccc(C(=O)Nc2cccc(C(F)(F)F)c2)cc1Nc1nc2ccccc2n1-c1cc(NCCN2CCN(C)CC2)ncn1 | 11 | 130 | 458 | – | – | – | –
Cc1ccc(NC(=O)c2cccc(C(F)(F)F)c2)cc1Nc1nc2ccccc2n1-c1cc(NCCCC2COCCN2)ncn1 (stereo not drawn) | 26 | 49 | 165 | – | – | – | –
CCN1CCN(c2cc(C(=O)Nc3ccc(C)c(Nc4nc5ccccc5n4-c4cc(N)ncn4)c3)cc(C(F)(F)F)c2)CC1 | 11 | 16 | 71 | – | – | – | –
Cc1ccc(NC(=O)c2cc(C3CC3)n[nH]2)cc1Nc1nc2ccccc2n1-c1cc(N)ncn1 | 120 | 446 | 7360 | – | – | – | –
Cc1ccc(NC(=O)c2cccc(C(F)(F)F)c2)cc1Nc1nc2ccccc2n1-c1cc(NCCc2ccccn2)ncn1 | 204 | 917 | 2370 | – | – | – | –
Cc1ccc(C(=O)Nc2cccc(C(F)(F)F)c2)cc1Nc1nc2ccccc2n1-c1ncnc(NCCCN2CCN(C)CC2)n1 | 12 | 54 | – | – | – | – | –
CCN(CC)CCCCNc1cc(-n2c(Nc3cc(C(=O)Nc4cccc(C)c4)ccc3C)nc3ccccc32)ncn1 | 20 | 1810 | – | – | – | – | –
Cc1cccc(NC(=O)c2ccc(C)c(Nc3nc4ccccc4n3-c3cc(NCCCN4CCN(C)CC4)ncn3)c2)c1 | 19 | 1870 | – | – | – | – | –
Cc1ccc(C(=O)Nc2cccc(C(F)(F)F)c2)cc1Nc1nc2ccccc2n1-c1cc(NCCC#N)ncn1 | 1370 | > 2500 | – | – | – | – | –
Cc1ccc(NC(=O)c2cccc(C(F)(F)F)c2)cc1Nc1nc2ccccc2n1-c1cc(NC2CCN(C)CC2)ncn1 | 168 | > 2500 | > 2500 | – | – | – | –
Cc1ccc(NC(=O)c2cc(OC3CCN(C)CC3)cc(C(F)(F)F)c2)cc1Nc1nc2ccccc2n1-c1cc(N)ncn1 | 24 | 27 | 233 | – | – | – | –
Cc1ccc(NC(=O)c2cccc(C(F)(F)F)c2)cc1Nc1nc2ccccc2n1-c1cc(NCCCN2CCN(C)CC2)ncn1 | 6 | 31 | 128 | – | – | – | –

SMILES | IC50 [1] [nM] | IC50 [2] [nM] | IC50 [3] [nM] | hepatic extraction ratio [4] | AUC [5] [µM·h] | AUC (Mus musculus) [nmol·h/L] | IC50 (BaF3) [nM]
Cc1ccc(NC(=O)c2cc(N3CCN(C)CC3)cc(C(F)(F)F)c2)cc1Nc1nc2ccccc2n1-c1cc(N)ncn1 | 11 | 20 | 130 | – | – | – | –
Cc1ccc(C(=O)Nc2cccc(C(F)(F)F)c2)cc1Nc1nc2ccccc2n1-c1cc(NCCCCN(C)C)ncn1 | 15 | 56 | 485 | – | – | – | –
Cc1ccc(C(=O)Nc2cccc(C(F)(F)F)c2)cc1Nc1nc2ccccc2n1-c1ncnc(N)c1C | 2400 | > 2500 | > 2500 | – | – | – | –
Cc1ccc(NC(=O)c2cccc(C(F)(F)F)c2)cc1Nc1nc2ccccc2n1-c1cc(NCCC2CCCN2)ncn1 (stereo not drawn) | 38 | 805 | > 2500 | – | – | – | –
Cc1cn(-c2cc(NC(=O)c3ccc(C)c(Nc4nc5ccccc5n4-c4cc(N)ncn4)c3)cc(C(F)(F)F)c2)cn1 | 238 | 904 | – | – | – | – | –
Cc1ccc(NC(=O)c2cccc(C(F)(F)F)c2)cc1Nc1nc2ccccc2n1-c1cc(N2CCOCC2)ncn1 | > 2500 | > 2500 | > 2500 | – | – | – | –
Cc1ccc(NC(=O)c2cccc(C(F)(F)F)c2)cc1Nc1nc2ccccc2n1-c1cc(NCCCCN(C)C)ncn1 | 5 | 65 | 139 | – | – | – | –
Cc1ccc(C(=O)Nc2cccc(C(F)(F)F)c2)cc1Nc1nc2ccccc2n1-c1cc(NCCCN2CCN(C)CC2)ncn1 | 18 | 260 | 494 | – | – | – | –
CCN(CC)CCCCNc1cc(-n2c(Nc3cc(C(=O)Nc4cccc(C(F)(F)F)c4)ccc3C)nc3ccccc32)ncn1 | 18 | 475 | 274 | – | – | – | –
Cc1ccc(NC(=O)c2cccc(C(F)(F)F)c2)cc1Nc1nc2ccccc2n1-c1cc(NCCN2CCN(C)CC2)ncn1 | 29 | 69 | 305 | – | – | – | –
CCN(CC)CCNc1cc(-n2c(Nc3cc(NC(=O)c4cccc(C(F)(F)F)c4)ccc3C)nc3ccccc32)ncn1 | 111 | 378 | > 2500 | – | – | – | –
Cc1ccc(NC(=O)c2cccc(C(F)(F)F)c2)cc1Nc1nc2ccccc2n1-c1cc(N[C@H]2CC[C@H](N)CC2)ncn1 | 71 | 450 | 1720 | 0.383 | – | – | –
Cc1ccc(NC(=O)c2cc(CN3CCN(C)CC3)n(C(C)(C)C)n2)cc1Nc1nc2ccccc2n1-c1cc(N)ncn1 | 8 | 11 | 177 | – | – | – | –
CCN(CC)CCCCNc1cc(-n2c(Nc3cc(NC(=O)c4cccc(C(F)(F)F)c4)ccc3C)nc3ccccc32)ncn1 | 12 | 430 | 97 | < 0.3 | 0.368 | – | –
Cc1ccc(C(=O)Nc2cccc(C(C)C)c2)cc1Nc1nc2ccccc2n1-c1cc(N)ncn1 | 30 | 151 | – | – | – | – | –

Continued, in another order:

IC50 [1] [nM] | IC50 [2] [nM] | IC50 [3] [nM] | hepatic extraction ratio [4] | AUC [5] [µM·h] | SMILES | AUC (Mus musculus) [nmol·h/L] | IC50 (BaF3) [nM]
230 | > 2500 | – | – | – | Cc1ccc(NC(=O)c2cccc(C(F)(F)F)c2)cc1Nc1nc2ccccc2n1-c1cc(NCCN)ncn1 | – | –
59 | > 2500 | – | – | – | Cc1ccc(C(=O)Nc2cccc(C(F)(F)F)c2)cc1Nc1nc2ccccc2n1-c1cc(N)ncn1 | – | –
52 | > 2500 | – | – | – | Cc1cccc(NC(=O)c2ccc(C)c(Nc3nc4ccccc4n3-c3cc(N)ncn3)c2)c1 | – | –
715 | > 2500 | – | – | – | Cc1ccc(NC(=O)c2ccncc2Cl)cc1Nc1nc2ccccc2n1-c1cc(N)ncn1 | – | –
– | 46 | – | – | – | Cc1ccc(NC(=O)c2ccncc2C(C)(C)C)cc1Nc1nc2ccccc2n1-c1cc(N)ncn1 | – | –
135 | 405 | 1690 | – | – | COCCNc1cc(-n2c(Nc3cc(NC(=O)c4cccc(C(F)(F)F)c4)ccc3C)nc3ccccc32)ncn1 | 2687 | –
1160 | 3830 | 16500 | – | – | Cc1ccc(NC(=O)c2cccc(C(F)(F)F)c2)cc1Nc1nc2ccccc2n1-c1cc(Cl)ncn1 | – | –
4 | 9 | 32 | – | – | CCN1CCN(Cc2ccc(C(=O)Nc3ccc(C)c(Nc4nc5ccccc5n4-c4cc(N)ncn4)c3)cc2Cl)CC1 | – | –
> 2500 | > 2500 | – | – | – | Cc1ccc(C(=O)Nc2cccc(C(N)=O)c2)cc1Nc1nc2ccccc2n1-c1cc(N)ncn1 | – | –
132 | 475 | 1650 | – | – | Cc1ccc(NC(=O)c2cccc(Cl)c2)cc1Nc1nc2ccccc2n1-c1cc(N)ncn1 | – | –
58 | 121 | 530 | – | – | Cc1ccc(NC(=O)c2cc(Cl)cc(Cl)c2)cc1Nc1nc2ccccc2n1-c1cc(N)ncn1 | – | –
17 | > 2500 | – | – | – | Cc1ccc(C(=O)Nc2cccc(OC(F)F)c2)cc1Nc1nc2ccccc2n1-c1cc(N)ncn1 | – | –
1080 | > 2500 | – | – | – | Cc1ccc(C(=O)Nc2ccccc2)cc1Nc1nc2ccccc2n1-c1cc(N)ncn1 | – | –
27 | 192 | 1920 | – | – | Cc1ccc(NC(=O)c2cccc(C(F)(F)F)c2)cc1Nc1nc2ccccc2n1-c1cc(NCCO)ncn1 | – | –
177 | > 2500 | – | – | – | Cc1cc(NC(=O)c2ccc(C)c(Nc3nc4ccccc4n3-c3cc(N)ncn3)c2)ccn1 | – | –
22 | > 2500 | – | – | – | Cc1cccc(NC(=O)c2ccc(C)c(Nc3nc4ccccc4n3-c3cc(NCCCCN(C)C)ncn3)c2)c1 | – | –
22 | 139 | – | – | – | Cc1ccc(C(=O)Nc2cccc(C(C)(C)C)c2)cc1Nc1nc2ccccc2n1-c1cc(N)ncn1 | – | –
23 | 1960 | – | – | – | Cc1ccc(NC(=O)c2cccc(C(F)(F)F)c2)cc1Nc1nc2ccccc2n1-c1cc(NCCCN)ncn1 | – | –
11 | 43 | 450 | – | – | Cc1ccc(NC(=O)c2cccc(C(F)(F)F)c2)cc1Nc1nc2ccccc2n1-c1cc(N)ncn1 | – | –
2030 | > 2500 | > 2500 | – | – | COc1cc(-n2c(Nc3cc(NC(=O)c4cccc(C(F)(F)F)c4)ccc3C)nc3ccccc32)ncn1 | – | –
90 | > 2500 | – | – | – | COc1cccc(NC(=O)c2ccc(C)c(Nc3nc4ccccc4n3-c3cc(N)ncn3)c2)c1 | – | –
43 | > 2500 | – | – | – | Cc1ccc(C(=O)Nc2cccc(Br)c2)cc1Nc1nc2ccccc2n1-c1cc(N)ncn1 | – | –
63 | > 2500 | – | – | – | Cc1ccc(C(=O)Nc2cccc(Cl)c2)cc1Nc1nc2ccccc2n1-c1cc(N)ncn1 | – | –
43 | 84 | 916 | – | – | Cc1ccc(NC(=O)c2ccc(C(C)(C)C)s2)cc1Nc1nc2ccccc2n1-c1cc(N)ncn1 | – | 6
70 | 245 | 1540 | – | – | Cc1cccc(C(=O)Nc2ccc(C)c(Nc3nc4ccccc4n3-c3cc(N)ncn3)c2)c1 | – | –
